Data published in US20250332173A1, “COMPOUNDS AND METHODS FOR MODULATING NUCLEIC ACID SPLICING” (REMIX THERAPEUTICS INC., priority 2021, published 2025).
Read-outs that look alike come from different tables or passages of the source.

Tests used:
[1] = system: K562 (human chronic myelogenous leukemia) cells; test: Cell Titer Glo 2.0 cell viability assay; format: cell-based; settings: Homo sapiens, K562, 72 h, K562 cells, 72 hours, Cell Titer Glo 2.0; read-out: K562 GI50
HTT mRNA = test: RT-qPCR splicing assay, HTT canonical junction (CJ) and alternative junction (AJ) mRNA; format: cell-based, human; settings: Homo sapiens; for AC50: increase in HTT alternative junction (AJ) mRNA, read-out: HTT AJ AC50
Outline: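 A673 cells (normalized to PPIA) or K562 cells (normalized to GAPDH or GUSB) were treated 24 h at 37 °C with an 11-point 3-fold dilution series, top 10 uM, DMSO ≤0.25%. Cell lysates went to one-step RT-qPCR measuring canonical- and alternative-junction MYB or HTT transcripts.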

MYB = test: HiBiT protein abundance assay, MYB HiBiT K562 cell line; format: cell-based, human; settings: 24 hours, top dose 10 μM
Outline: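 K562 knock-in lines with endogenous HiBiT-tagged target, 10,000 cells/well in IMDM + FBS, treated 24 h at 37° C with 10-point 3-fold dilutions (top 10 μM final; DMSO ≤0.25%). Lytic Nano-Glo HiBiT luminescence normalized to untagged K562 baseline and DMSO controls; IC50 = concentration giving 50% abundance via four-parameter fit.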

[2] = decrease in HTT canonical junction (CJ) mRNA, RT-qPCR, read-out: HTT CJ IC50
[3] = canonical junction qPCR panel, Table 5, read-out: HTT (decrease in CJ mRNA levels, IC50)
[4] = HiBiT lytic detection, modified K562 cells, read-out: Effect on protein abundance, MYB (IC50)
[5] = HiBiT K562 cell line, read-out: Effect on protein abundance, MYB (IC50 category)
[6] = Table 5 panel, canonical junction qPCR, compound concentration having 50% response in CJ decrease, read-out: HTT IC50 (decrease in CJ mRNA levels)

Row | SMILES | GI50 [1] | IC50 (HTT mRNA; [2]) | AC50 (HTT mRNA; RT-qPCR) | IC50 (HTT mRNA; [3]) | IC50 (MYB; [4]) | IC50 (MYB; [5]) | IC50 (HTT mRNA; [6])
1 | CCN1CCC(n2ncc3nc(-c4cc(C)c5nc(C)cn5n4)ccc3c2=O)CC1 [Compound 1308] | 100 to 1000 nM | 100 to 1000 nM | < 100 nM | < 100 nM | 100 to 1000 nM |  | 
2 | Cc1c(O)c(-c2ncc3c(=O)n([C@@H]4C[C@@H](C)N[C@@H](C)C4)ccc3n2)cc2cn(C)nc12 [Compound 1453, 6-[(2S,6R)-2,6-dimethyl-4-piperidyl]-2-(6-hydroxy-2,7-dimethyl-indazol-5-yl)pyrido[4,3-d]pyrimidin-5-one] | 100 to 1000 nM | > 10000 nM | 1000 to 10000 nM | 1000 to 10000 nM |  | 100 to 1000 nM | 
3 | Cc1cn2cc(-c3ccc4c(=O)n(C5CCNCC5)ccc4n3)cc(C#N)c2n1 [Compound 1297] | 100 to 1000 nM | 100 to 1000 nM | 100 to 1000 nM | 100 to 1000 nM |  | 100 to 1000 nM | 
4 | Cc1cn2cc(-c3ncc4c(=O)n([C@H]5CCNC5)ccc4n3)cc(F)c2n1 [Compound 1220] | 100 to 1000 nM | 100 to 1000 nM | 100 to 1000 nM |  |  | 100 to 1000 nM | 100 to 1000 nM
5 | Cc1cn2cc(-c3cc4ccn(C5CCNCC5)c(=O)c4cn3)cc(F)c2n1 [Compound 1196] | 100 to 1000 nM | 100 to 1000 nM | 100 to 1000 nM |  |  | < 100 nM | 100 to 1000 nM
6 | Cn1cc2cc(-c3cc4ccn(C5CCNCC5)c(=O)c4cn3)c(O)c(F)c2n1 [Compound 1199] | 1000 to 10000 nM | 1000 to 10000 nM | 1000 to 10000 nM |  |  | 1000 to 10000 nM | 1000 to 10000 nM
7 | Cc1c(O)c(-c2ncc3c(=O)n(C4CCNC4)ccc3n2)cc2cn(C)nc12 (stereo in doubt) [Compound 1439, (6R)-2-(6-hydroxy-2,7-dimethyl-indazol-5-yl)-6-pyrrolidin-3-yl-pyrido[4,3-d]pyrimidin-5-one] | 100 to 1000 nM | > 10000 nM | 1000 to 10000 nM | 1000 to 10000 nM |  | 100 to 1000 nM | 
8 | Cc1cn2cc(-c3cc4ccn(C5CCNCC5)c(=O)c4cn3)nc(C)c2n1 [Compound 1205, 6-(2,8-dimethylimidazo[1,2-a]pyrazin-6-yl)-2-(piperidin-4-yl)-2,7-naphthyridin-1(2H)-one] | 100 to 1000 nM | 100 to 1000 nM | 100 to 1000 nM |  |  | 100 to 1000 nM | 100 to 1000 nM
9 | Cc1cc(-c2cc3ccn(C4CCN(CCO)CC4)c(=O)c3cn2)cc2cn(C)nc12 [Compound 1210, 6-(2.7-dimethyl-2H-indazol-5-yl)-2-(1-(2-hydroxyethyl)piperidin-4-yl)-2,7-naphthyridin-1(2H)-one] | 1000 to 10000 nM | > 10000 nM | > 10000 nM |  |  | 1000 to 10000 nM | > 10000 nM
10 | Cc1c(O)c(-c2ccc3c(=O)n(C4CCNCC4)cc(C)c3n2)cc2cn(C)nc12 [Compound 1284] | < 100 nM | 100 to 1000 nM | < 100 nM | < 100 nM |  | < 100 nM | 
11 | Cc1c(O)c(-c2ncc3c(=O)n(C4C[C@@H](C)N[C@H](C)C4)ccc3n2)cc2cn(C)nc12 (stereo partly drawn) [Compound 1454, 6-[(2R,6R)-2,6-dimethyl-4-piperidyl]-2-(6-hydroxy-2,7-dimethyl-indazol-5-yl)pyrido[4,3-d]pyrimidin-5-one] | 100 to 1000 nM | 1000 to 10000 nM | 100 to 1000 nM | 100 to 1000 nM |  | 100 to 1000 nM | 
12 | Cn1cc2cc(-c3ncc4c(=O)n(C5CCNCC5)ccc4n3)c(O)cc2n1 [Compound 1211] | < 100 nM | 100 to 1000 nM | 100 to 1000 nM |  |  | < 100 nM | 100 to 1000 nM
13 | Cc1cn2cc(-c3ncc4c(=O)n(C5CCNC5)ccc4n3)c(O)c(C)c2n1 (stereo not shown) [Compound 1227] | 1000 to 10000 nM | > 10000 nM | > 10000 nM |  |  | 1000 to 10000 nM | > 10000 nM
14 | Cn1cc2cc(-c3ccc4c(=O)n(C5CCNC6(CC6)C5)ccc4n3)c(O)cc2n1 (stereo not shown) [Compound 1242] | < 100 nM | < 100 nM | < 100 nM | < 100 nM |  | < 100 nM | 
15 | Cc1cc(-c2cc3ccn(C4CCN(C)CC4)c(=O)c3cn2)cc2cn(C)nc12 [Compound 1206, 6-(2,7-dimethyl-2H-indazol-5-yl)-2-(1-methylpiperidin-4-yl)-2,7-naphthyridin-1(2H)-one] | 1000 to 10000 nM | > 10000 nM | > 10000 nM |  |  | 100 to 1000 nM | > 10000 nM
16 | COc1c(-c2cc3ccn(C4CCNCC4)c(=O)c3cn2)cc2cn(C)nc2c1F [Compound 1219] | 1000 to 10000 nM | 1000 to 10000 nM | 1000 to 10000 nM |  |  | 100 to 1000 nM | 1000 to 10000 nM
17 | Cc1c(O)c(-c2ncc3c(=O)n(C4CCNC(C)(C)C4)ccc3n2)cc2cn(C)nc12 (stereo not shown) [Compound 1442] | 100 to 1000 nM | 1000 to 10000 nM | 100 to 1000 nM | 100 to 1000 nM |  | < 100 nM | 
18 | Cc1c(O)c(-c2ncc3c(=O)n(C4CCNCC4)cc(C)c3n2)cc2cn(C)nc12 [Compound 1191] | < 100 nM | 100 to 1000 nM | < 100 nM |  |  | 1000 to 10000 nM | < 100 nM
19 | Cc1cn2cc(-c3ncc4c(=O)n(C5CCNCC5)ccc4n3)c(O)c(C)c2n1 [Compound 1225] | 100 to 1000 nM | 100 to 1000 nM | 100 to 1000 nM |  |  | 100 to 1000 nM | 100 to 1000 nM
20 | Cc1c(O)c(-c2ncc3c(=O)n([C@H]4C[C@@H](N)C4)ccc3n2)cc2cn(C)nc12 [Compound 1431, 6-((1s,3s)-3-aminocyclobutyl)-2-(6-hydroxy-2,7-dimethyl-2H-indazol-5-yl)pyrido[4,3-d]pyrimidin-5(6H)-one] | 1000 to 10000 nM | 1000 to 10000 nM | 1000 to 10000 nM | 1000 to 10000 nM |  | 100 to 1000 nM | 
21 | Cc1c(O)c(-c2ncc3c(=O)n(C4C[C@H]5C[C@@H]4CN5)ccc3n2)cc2cn(C)nc12 (stereo in doubt) [Compound 1444, 6-[(1R,4R,5R)-2-azabicyclo[2.2.1]heptan-5-yl]-2-(6-hydroxy-2,7-dimethyl-indazol-5-yl)pyrido[4,3-d]pyrimidin-5-one] | 100 to 1000 nM | 100 to 1000 nM | 100 to 1000 nM | 100 to 1000 nM |  | 100 to 1000 nM | 
22 | Cc1cn2cc(-c3cc(O)c4c(=O)n(C5CCNCC5)ccc4n3)cc(F)c2n1 [Compound 1448] | 100 to 1000 nM | 1000 to 10000 nM | 100 to 1000 nM | 100 to 1000 nM |  | 100 to 1000 nM | 
23 | Cc1cn2nc(-c3ccc4c(=O)n(C5CCNCC5)ncc4c3)cc(C)c2n1 [Compound 186] | 100 to 1000 nM | < 100 nM | < 100 nM |  |  | 100 to 1000 nM | < 100 nM
24 | Cc1cn2nc(-c3ccc4c(=O)n(C5CCN(CCF)CC5)ncc4n3)cc(C)c2n1 [Compound 1309] | 100 to 1000 nM | 100 to 1000 nM | < 100 nM | < 100 nM | 100 to 1000 nM |  | 
25 | Cc1cn2nc(-c3ccc4c(=O)n([C@@H]5CCNC5)ccc4n3)cc(C)c2n1 [Compound 1438, 2-(2,8-dimethylimidazo[1,2-b]pyridazin-6-yl)-6-[(3R)-pyrrolidin-3-yl]-1,6-naphthyridin-5-one] | 1000 to 10000 nM | 1000 to 10000 nM | 1000 to 10000 nM | 1000 to 10000 nM |  | 100 to 1000 nM | 
26 | Cc1c(O)c(-c2ncc3c(=O)n([C@H]4CCNC(C)(C)C4)ccc3n2)cc2cn(C)nc12 [Compound 1436] | < 100 nM | 1000 to 10000 nM | 1000 to 10000 nM | 1000 to 10000 nM |  | < 100 nM | 
